Reference: patent US10548895B2, “Ligands that target Plasmodium sporozoite binding sites on CD81 and therapeutic methods using them” (American University In Cairo (AUC), priority 2014, dated 2020)
“Also recorded” adds a separate entry of the source. Like-named read-outs stand apart in the source and are kept apart here.

How the values were obtained:
[1] = target: T1, native CD81 on Raji cells (Homo sapiens, UniProt P60033); assay: Antibody neutralizing assay: inhibition of JS-81 anti-CD81 antibody binding on Raji cells (FACS); type: cell-based; details: for inhibition at 50 µM / inhibition at 100 µM / inhibition at 400 µM: read-out: Inhibition of JS-81 Binding (%)
T1 construct: endogenous in cells; host or cells: Raji cells (human B cell line)
T1 sequence (P60033 1-236): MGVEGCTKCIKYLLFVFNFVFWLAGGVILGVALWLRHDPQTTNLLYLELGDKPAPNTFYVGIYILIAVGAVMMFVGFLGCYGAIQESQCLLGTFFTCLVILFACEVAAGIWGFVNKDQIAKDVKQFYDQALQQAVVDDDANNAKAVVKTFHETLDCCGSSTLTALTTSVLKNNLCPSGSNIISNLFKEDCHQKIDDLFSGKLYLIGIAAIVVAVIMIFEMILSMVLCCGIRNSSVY
Description: For antibody neutralization assay Raji cells were used, a human B cell line that expressed high amounts of CD81 on the surface (data not shown), Cells were grown in RPMI medium (10% FCS, 1% penicillin/streptomycin, 1% L-glutamine, 1% non-essential amino acids, 1% sodium pyruvate, pH 7.4, at 37° C. with 5% CO2). 2×10^5 cells were incubated with or without different concentrations (50 μM, 100 μM, 400 μM and 1 mM) of indicated inhibitor for 20 min at room temperature, subsequently 1 ul (16 ng/μl) of FITC-labeled anti CD81 antibody (BD Pharmingen, 551108) was added to the cells and incubated for 20 min (antibody titration was performed to obtain a working dilution range, data not shown). Cells were washed and analyzed by FACS (BD FACSCalibur, software: Cell Quest Pro). Mean Fluorescence Intensity MFI was calculated using Flowjo software (TreesStar, www.flowjo.com).

CD81-LEL = target: T2, CD81-LEL (Homo sapiens, UniProt P60033); assay: Surface plasmon resonance binding of ligands to immobilized CD81-LEL; details: SPR; for Binding (change in response units): 3 min association; for Dissociation 1 (change in response units) / Dissociation 2 (change in response units): dissociation interval
T2 construct: A recombinant form of the CD81-LEL protein with a GST tag; gift of Dr. Shoshana Levy, Stanford University
T2 sequence (P60033 113-201 limits assumed): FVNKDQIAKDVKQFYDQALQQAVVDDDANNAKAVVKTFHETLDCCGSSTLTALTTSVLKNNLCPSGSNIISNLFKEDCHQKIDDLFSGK
Description: SPR analysis was performed using a Biacore T200 workstation (GE Healthcare, NJ, USA). A recombinant form of the CD81-LEL protein with a GST tag (generously provided by Dr. Shoshana Levy, Stanford University) was used to confirm, using an established experimental technique, the binding of several ligands to the protein. Briefly, 10 μM CD81-LEL-GST diluted into 10 mM Na-Acetate buffer pH 4.5 was immobilized for 15 min at a flow speed of 5 μl/min onto a CM5 sensor chip using amine-coupling (EDC-NHS), Approximately 20,000 RU of protein were immobilized on the chip. The ligands were prepared as 600 μM solutions in PBS-0.05% Tween-80 (the running buffer) and they were introduced to the protein using a pre-programmed 3 minute association and 1 minute dissociation interval.
SPR analysis was performed using a Biacore T100 workstation (GE Healthcare, NJ, USA). […] Approximately 20,000 RU of protein were immobilized on the chip. The ligands were prepared as 200 uM solutions in PBS-1% DMSO (the running buffer) and they were introduced to the protein using a pre-programmed 3 min association and 1 min dissociation interval.

c1cncc(C2CCCC[NH2+]2)c1 (stereo in doubt) [Ligand 87504, 3-[(2S)-piperidin-2-yl]pyridine]
inhibition at 50 µM ([1]; Raji): 0% | inhibition at 100 µM ([1]; Raji): 6% | inhibition at 400 µM ([1]; Raji): 20% | binding-dissociation behavior (in words) (CD81-LEL): best binding and dissociation; also recorded: most desirable binding-dissociation behavior; also recorded: best binding-dissociation behavior | Binding (change in response units) (CD81-LEL): 72 response units | Dissociation 1 (change in response units) (CD81-LEL): 57.9 response units | Dissociation 2 (change in response units) (CD81-LEL): 42.6 response units

CC(C)(C)c1ccc(NS(=O)(=O)c2ccc(N)cc2)cc1 [Ligand 7436]
Inhibition of JS-81 Binding (%) ([1]; 50 μM ligand, Raji cells): 0% | Inhibition of JS-81 Binding (%) ([1]; 100 μM ligand, Raji cells): 12% | Inhibition of JS-81 Binding (%) ([1]; 400 μM ligand, Raji cells): 11%

O=C(O)c1ccc(N2CCCCC2)cc1O [Ligand 23895]
Inhibition of JS-81 Binding (%) ([1]; 50 μM ligand, Raji cells): 0% | Inhibition of JS-81 Binding (%) ([1]; 100 μM ligand, Raji cells): 0% | Inhibition of JS-81 Binding (%) ([1]; 400 μM ligand, Raji cells): 17%

Cc1ccc(-c2cc(C(=O)O)c3ccccc3n2)c(C)c1 [Ligand 25678]
Inhibition of JS-81 Binding (%) ([1]; 50 μM ligand, Raji cells): 0% | Inhibition of JS-81 Binding (%) ([1]; 100 μM ligand, Raji cells): 4% | Inhibition of JS-81 Binding (%) ([1]; 400 μM ligand, Raji cells): 19%

O=C(O)c1cc2cc(OCc3ccccc3)ccc2[nH]1 [Ligand 30930, 5-phenylmethoxy-1H-indole-2-carboxylic acid]
inhibition at 50 µM ([1]; 50 μM ligand, Raji cells): 0% | inhibition at 100 µM ([1]; 100 μM ligand, Raji cells): 0% | inhibition at 400 µM ([1]; 400 μM ligand, Raji cells): 14% | Binding (change in response units) (CD81-LEL): 38.6 response units | Dissociation 1 (change in response units) (CD81-LEL): 26.8 response units | Dissociation 2 (change in response units) (CD81-LEL): 21.8 response units

NC(N)=N/N=C\c1c(Cl)cccc1Cl [Ligand 68982]
Inhibition of JS-81 Binding (%) ([1]; 50 μM ligand, Raji cells): 0% | Inhibition of JS-81 Binding (%) ([1]; 100 μM ligand, Raji cells): 13% | Inhibition of JS-81 Binding (%) ([1]; 400 μM ligand, Raji cells): 15%

CNC1(C(N)=O)CCNCC1 [Ligand 75846]
Inhibition of JS-81 Binding (%) ([1]; 50 μM ligand, Raji cells): 0% | Inhibition of JS-81 Binding (%) ([1]; 100 μM ligand, Raji cells): 0% | Inhibition of JS-81 Binding (%) ([1]; 400 μM ligand, Raji cells): 52%

O=C(Cn1ccc(=O)[nH]c1=O)Nc1ccc(C(=O)O)c(O)c1 [Ligand 93033, 4-[[2-(2,4-dioxopyrimidin-1-yl)acetyl]amino]-2-hydroxybenzoate]
inhibition at 50 µM ([1]; 50 μM ligand, Raji cells): 0% | inhibition at 100 µM ([1]; 100 μM ligand, Raji cells): 0% | inhibition at 400 µM ([1]; 400 μM ligand, Raji cells): 16% | binding-dissociation behavior (in words) (CD81-LEL): comparable binding and dissociation | Binding (change in response units) (CD81-LEL): 6.7 response units | Dissociation 1 (change in response units) (CD81-LEL): 16.8 response units | Dissociation 2 (change in response units) (CD81-LEL): 7.9 response units

O=C(O)c1cc(O)ccc1N=Nc1ccccc1 [Ligand 106863]
Inhibition of JS-81 Binding (%) ([1]; 50 μM ligand, Raji cells): 0% | Inhibition of JS-81 Binding (%) ([1]; 100 μM ligand, Raji cells): 0% | Inhibition of JS-81 Binding (%) ([1]; 400 μM ligand, Raji cells): 19%

NC(=O)NC(=O)c1nccnc1C(=O)O [Ligand 117922]
Inhibition of JS-81 Binding (%) ([1]; 50 μM ligand, Raji cells): 0% | Inhibition of JS-81 Binding (%) ([1]; 100 μM ligand, Raji cells): 12% | Inhibition of JS-81 Binding (%) ([1]; 400 μM ligand, Raji cells): 26%

CC(=NO)C1CC(CC(=O)O)C1(C)C (centres unmarked) [Ligand 127947]
Inhibition of JS-81 Binding (%) ([1]; 50 μM ligand, Raji cells): 0% | Inhibition of JS-81 Binding (%) ([1]; 100 μM ligand, Raji cells): 0% | Inhibition of JS-81 Binding (%) ([1]; 400 μM ligand, Raji cells): 24%

NS(=O)(=O)c1ccc(N=Nc2c(O)c(C(=O)O)cc3ccccc23)cc1 [Ligand 134137]
Inhibition of JS-81 Binding (%) ([1]; 50 μM ligand, Raji cells): 0% | Inhibition of JS-81 Binding (%) ([1]; 100 μM ligand, Raji cells): 6% | Inhibition of JS-81 Binding (%) ([1]; 400 μM ligand, Raji cells): 26%

O=C(O)/C=C/C(=O)Nc1cccc2cccnc12 [Ligand 144958]
Inhibition of JS-81 Binding (%) ([1]; 50 μM ligand, Raji cells): 0% | Inhibition of JS-81 Binding (%) ([1]; 100 μM ligand, Raji cells): 54% | Inhibition of JS-81 Binding (%) ([1]; 400 μM ligand, Raji cells): 12%
